Values quoted from earlier work, collected in US10507185B2, “Composite structural material and pharmaceutical composition thereof” (INNOVACO PHARMACEUTICALS, INC, priority 2013, dated 2019).

## CC(C)n1c(/C=C/C(O)CC(O)CC(=O)O)c(-c2ccc(F)cc2)c2ccccc21 (stereo not shown) [Fluvastatin, fluvastatin]
  pKa value: 4.6
